Measurements: patent publication US20210030714A1, “COMPOUNDS FOR USE IN THE TREATMENT OF BRAIN DISEASES” (UNIVERSITA DEGLI STUDI DI ROMA "LA SAPIENZA", priority 2018, published 2021)
“Also recorded” adds a separate entry of the source.

What was measured:
[1] = tested on: murine glioma GL261 cells; experiment: Orthotopic GL261 glioma in mice, tumor volume (procedure A); type: in vivo, mice (C57BL/6); settings: for tumor volume: every two days, N=7, vehicle ethanol:2-hydroxypropyl-beta-cyclodextrin 1:5
Method: Male wild type (C57BL/6) mice were inoculated with murine glioma cells (GL261, Leibniz-Institute DMSZ, ACC802) at the age of 8 weeks (animals weighing an average weight of 22 g). After being anesthetized by intraperitoneal injection of 50 mg/kg Zoletil anaesthetic (combination of tiletamine hypochloride and zolazepam hypochloride) associated with 10 mg/kg Rompun (xylazine), the animals were subjected to orthotopic injection (subcortical/striatum, […] anteroposterior, −2 mm lateral to the bregma) of GL261 cells (1×10^5 cells per mouse) using a stereotaxic apparatus to accurately and reproducibly reach the right striatal region. The cells, resuspended in 5 μl of phosphate buffer, were injected by the use of a Hamilton syringe connected to the stereotaxic apparatus.
GlaB dissolved in the vehicle constituted by ethanol (Sigma-Aldrich #51976): 2-hydroxypropyl-beta-cyclodextrin (Sigma-Aldrich #C0926) solution (10% (w/v) in H2O) in a 1:5 volume ratio was administered by intraperitoneal injections (ip, 35 mg/kg) and intranasally (in, 4.4 mg/kg), every two days after 7 days from the implantation of tumor cells for a total of 6 days of treatment. Intranasal administration was performed through the so-called “snort delivery”: drops of the medicament were sniffed by the animal, anesthetized with 2.5% Isofluorane, until reaching the upper nasal cavity.
The day after the last administration of GlaB, mice were perfused with phosphate buffer and then 4% PFA and their brain isolated, further fixed and frozen. After about 48 h each frozen brain was cut into subsequent coronal slices, 20 μm thick, collected at 100 μm intervals. The determination of tumor volume was performed by histological staining (hematoxylin and eosin) of the brain slices: the tumor mass is recognizable because it has a darker color compared to the remaining healthy tissue. The tumor volume is calculated through analysis of images obtained under a phase contrast microscope (ECLIPSE Ti-S, Nikon) using commercial software released in the public domain (ImageJ, National Institutes of Health of the United States) able to measure the tumor area in each slice, necessary for volume calculation.

[2] = tested on: GL261 murine glioma cells; experiment: GL261 cell growth assay (MTT salt); type: cell-based; settings: 5 μM GlaB, in vitro, starting from 48 h of treatment, N=3, p<0.001
Method: The GL261 murine glioma cells (Leibniz-Institute DMSZ, ACC802) are grown in an incubator at 37° C. and 5% CO2 in a culture medium containing D-MEM (GIBCO), 20% fetal bovine serum (GIBCO), antibiotics (100 IU/ml penicillin G, 100 μg/ml streptomycin, 2.5 μg/ml amphotericin B), 2 mM glutamine and 1 mM pyruvate sodium.
GL261 murine glioma cells were seeded in culture medium in 96-well plates (5000 cells/well). After 4 h they were treated with 5 μM GlaB (C. Ingallina, P. M. Costa, F. Ghirga, R. Klippstein, J. T. Wang, S. Berardozzi, N. Hodgins, P. Infante, S. M. Pollard, B. Botta, K. T. Al-Jamal. Polymeric glabrescione B nanocapsules for passive targeting of Hedgehog-dependent tumor therapy in vitro. Nanomedicine, (2017), 12(7), 711-728. DOI: 10.2217/nnm-2016-0388) or the vehicle in which it is dissolved (DMSO) and every 24 h for three days their growth was evaluated using the dehydrogenation method of MTT salt (3-(4,5-dimetiltiazol-2-yl)-2,5-diphenyltetrazolium bromide, Sigma-Aldrich). The MTT salt was added to each well containing culture medium at the concentration of 0.5 mg/ml, and after 2 h of incubation at 37° C., cell growth was measured by measuring the spectrophotometer, at a wavelength of 570 nm, the absorbance values related to the amount of MTT salt transformed into formazan (insoluble violet-colored salt) simultaneously by live control cells and cells treated with GlaB.

[3] = GlaB brain level concentration by HPLC-ESI-MS after intranasal administration; type: in vivo, mice
Method: For HPLC analysis, mice were treated as above and sacrificed two hours post one single nasal administration; brains were collected and frozen (−80° C.) until use.
HPLC analyses were performed on brain samples from mice treated with GlaB/PEG-Cholane. The brain sample (500 mg), previously stored at −80° C. for 24 hours, was homogenized with 1 mL of a Phosphate Buffered Saline solution, PBS, using an ultrasound probe. A solution of ZnSO4 (0.1 M in H2O, 1 mL) and acetonitrile (1 mL) were added to the mixture, which was further homogenized with ultrasound for 15 minutes. Subsequently, the brain homogenate was stirred for 1 hour at room temperature and was then centrifuged at 3000 g for 5 min at T=4° C. The supernatant was collected. The following procedure to obtain a brain extract was repeated twice. Acetonitrile (1 mL) was added to the brain residue, stirred for 30 minutes at room temperature, then centrifuged at 3000 g for 5 min at T=4° C. and the supernatant collected. Brain extracts samples were centrifuged for five minutes at 5000 rpm and 20 μL of supernatant injected into the HPLC without further treatments.
The HPLC chromatographic system used was an UltiMate 3000 RS system (Thermo Fisher Dionex Sunnyvale, Calif.), equipped with an UltiMate 3000 LPG-3400RS Low Pressure Mixing Biocompatible Gradient Pump, an in-line split-loop well plate sampler, a thermostated column ventilated compartment (temperature range: 5-110° C.) and a diode array detector (UltiMate 3000 DAD-3000RS Rapid Separation Diode Array Detector, up to 200 Hz acquisition rate) with a low dispersion 13 μL flow cell. […]
Calibration standards ranged from 0.128 to 8.2 μg/mL for UV curve (y=0.2574x−0.2042, R2=0.9997) with a Limit of Quantitation, LOQ, (defined for a signal-to-noise ratio >10) of 4.1 ng on column, whereas calibration curve ranged 0.128-8.2 μg/ml for MS (y=11176x−1505.9) showing a correlation coefficient (r^2) equal to 0.9991.
A known amount (0.5 μg/mL) of the GlaB analyte (a spike) was added to treated brain sample. The samples and the samples plus spike were then analyzed. […]

COc1cc(OC)c2c(=O)c(-c3ccc(OCC=C(C)C)c(OCC=C(C)C)c3)coc2c1 [GlaB, Glabrescione B]
tumor volume reduction ([1]; intranasal formulation in ethanol:2-hydroxypropyl-beta-cyclodextrin solution (1:5 by volume), 4.4 mg/kg): about 70% | glioma volume in vivo compared to control solution ([1]; intranasal, 4.4 mg/kg): significantly reduce glioma volume | tumor volume ([1]; intranasal, 4.4 mg/kg): 0.21 mm³ | glioma volume in vivo compared to control solution ([1]; intraperitoneal, 35 mg/kg): significantly reduce glioma volume | tumor volume ([1]; intraperitoneal, 35 mg/kg): 0.48 mm³ | growth of GL261 tumor cells (MTT absorbance) compared to vehicle (DMSO) [2]: reduce their growth capacity; also recorded: significant reduction | concentration at 2 h ([3]; C57BL/6, mouse, brain, other: nasal administration (intranasal), 1.44 mg/Kg, mice, two hours post one single nasal administration of GlaB/PEG-Cholane, read-out: estimated brain level concentration): 3600 ng/g | GlaB peak in extract ion chromatogram of brain extract (drug reaches brain) ([3]; intranasally GlaB/PEG-Cholane treated mice vs control PEG-Cholane treated mice): presence of GlaB peak | GlaB quantified in brain extract, amount on column ([3]; mice, two hours post one single nasal administration of GlaB/PEG-Cholane, HPLC-MS SIM m/z 451): 6 ng on column
